Data as given in patent publication US20120178765A1, “NOVEL GLUCOKINASE ACTIVATORS AND PROCESSES FOR THE PREPARATION THEREOF” (YUHAN CORPORATION, priority 2009, published 2012).

target: T1, Glucokinase (Homo sapiens, UniProt P35557); assay: Glucokinase activation assay (NADPH absorbance at 340 nm); assay type: biochemical; details: glucokinase (ProteinOne Inc.), 5 mM D(+)-glucose, 24° C., 90 minutes
T1 construct: purchased ProteinOne Inc
T1 sequence (P35557 1-465): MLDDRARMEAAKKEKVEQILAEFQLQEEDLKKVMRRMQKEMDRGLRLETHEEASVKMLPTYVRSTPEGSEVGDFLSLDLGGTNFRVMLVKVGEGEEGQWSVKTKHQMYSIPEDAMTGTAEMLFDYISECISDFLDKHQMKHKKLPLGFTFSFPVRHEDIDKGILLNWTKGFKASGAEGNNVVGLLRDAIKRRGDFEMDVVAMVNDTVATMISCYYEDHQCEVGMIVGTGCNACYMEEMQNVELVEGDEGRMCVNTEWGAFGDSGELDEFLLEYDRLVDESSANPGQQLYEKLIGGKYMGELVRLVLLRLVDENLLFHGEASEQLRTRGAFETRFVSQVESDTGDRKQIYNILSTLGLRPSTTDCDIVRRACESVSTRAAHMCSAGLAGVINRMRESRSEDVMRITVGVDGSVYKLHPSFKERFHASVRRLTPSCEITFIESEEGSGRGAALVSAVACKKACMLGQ
Method: The amounts of glucokinase activation were determined by measuring the levels of NADPH (the final metabolite of glucose through glucokinase-mediated phospho-rylation) and then calculating to glucokinase activities.
Glucokinase (ProteinOne Inc.) was added, in the concentration of 100 ng/uL, to a enzyme-reaction medium (25 mM HEPES pH 7, 25 mM KCL, 1 mM MgCl, 5 mM D(+)-glucose, 1 mM ATP, 1 mM NADP, 1 mM DTT, and 2.5 u/mL G6PDH). Each compound in predetermined concentrations was added to the enzyme-reaction medium and then absorbance (First Absorbance) was measured at 340 nm of wavelength. After measuring the first absorbance, each reaction mixture was incubated at 24° C. for 90 minutes and then absorbance (Second Absorbance) was re-measured at 340 nm of wavelength. Using changes between First Absorbance and Second Absorbance, glucokinase activity was calculated. In the calculation, a maximum activity of the test compound (Emax), in comparison to the control group (no treatment of compound) was determined and then EC50 was calculated using the software for statistical analysis “Prism”, based on the activity-changes according to concentrations of the test compounds.
The amounts of glucokinase activation of the compounds of Comparative Examples 1 and 2 were determined, in accordance with the same procedures as in Test Example 1.

EC50	Substance
418 nM	3-[2-(2,3-difluorophenyl)ethyl]-5-(2-methoxy-(1S)-methyl-ethoxy)-N-(1-methyl-1H-pyrazol-3-yl)-benzamide [Example 95]
448 nM	3-[2-(2,3-dimethoxyphenyl)ethyl]-5-(2-methoxy-(1S)-methyl-ethoxy)-N-(1-methyl-1H-pyrazol-3-yl)-benzamide [Example 103]
322 nM	3-[2-(2,3-dimethoxyphenyl)ethyl]-5-(2-methoxy-(1S)-methyl-ethoxy)-N-(thiazol-2-yl)-benzamide [Example 90]
184 nM	3-[2-(2,4-difluorophenyl)ethyl]-5-(2-methoxy-(1S)-methyl-ethoxy)-N-(1-methyl-1H-pyrazol-3-yl)-benzamide [Example 96]
9.5 nM	3-[2-(2,4-difluorophenyl)ethyl]-5-(2-methoxy-(1S)-methyl-ethoxy)-N-(thiazol-2-yl)-benzamide [Example 85]
223 nM	3-[2-(2,4-dimethoxyphenyl)ethyl]-5-(2-methoxy-(1S)-methyl-ethoxy)-N-(1-methyl-1H-pyrazol-3-yl)-benzamide [Example 104]
298 nM	3-[2-(2,4-dimethoxyphenyl)ethyl]-5-(2-methoxy-(1S)-methyl-ethoxy)-N-(pyrazin-2-yl)-benzamide [Example 105]
36.6 nM	3-[2-(2,5-difluorophenyl)ethyl]-5-(2-methoxy-(1S)-methyl-ethoxy)-N-(thiazol-2-yl)-benzamide [Example 86]
34.4 nM	3-[2-(2,6-difluorophenyl)ethyl]-5-(2-methoxy-(1S)-methyl-ethoxy)-N-(thiazol-2-yl)-benzamide [Example 87]
318 nM	3-[2-(2-acetylaminophenyl)ethyl]-5-(2-methoxy-(1S)-methyl-ethoxy)-N-(thiazol-2-yl)benzamide [Example 116]
108 nM	3-[2-(2-aminophenyl)ethyl]-5-(2-methoxy-(1S)-methyl-ethoxy)-N-(thiazol-2-yl)-benzamide [Example 88]
210 nM	3-[2-(2-benzenesulfonylaminophenyl)ethyl]-5-(2-methoxy-(1S)-methyl-ethoxy)-N-(thiazol-2-yl)-benzamide [Example 115]
85.6 nM	3-[2-(2-chlorophenyl)ethyl]-5-(2-methoxy-(1S)-methyl-ethoxy)-N-(1-methyl-1H-pyrazol-3-yl)-benzamide [Example 101]
333 nM	3-[2-(2-fluorophenyl)ethyl]-5-(2-methoxy-(1S)-methyl-ethoxy)-N-(pyrazin-2-yl)-benz amide [Example 107]
41.6 nM	3-[2-(2-fluorophenyl)ethyl]-5-(2-methoxy-(1S)-methyl-ethoxy)-N-(thiazol-2-yl)-benzamide [Example 84]
72.1 nM	3-[2-(2-methanesulfonylaminophenyl)ethyl]-5-(2-methoxy-(1S)-methyl-ethoxy)-N-(thiazol-2-yl)-benzamide [Example 113]
304 nM	3-[2-(2-methoxyphenyl)ethyl]-5-(2-methoxy-(1S)-methyl-ethoxy)-N-(pyrazin-2-yl)-benzamide [Example 106]
28.4 nM	3-[2-(2-methoxyphenyl)ethyl]-5-(2-methoxy-(1S)-methyl-ethoxy)-N-(thiazol-2-yl)-benzamide [Example 89]
117 nM	3-[2-(3,5-dimethoxyphenyl)ethyl]-5-(2-methoxy-(1S)-methyl-ethoxy)-N-(1-methyl-1H-pyrazol-3-yl)-benzamide [Example 99]
208 nM	3-[2-(3-acetylaminophenyl)ethyl]-5-(2-methoxy-(1S)-methyl-ethoxy)-N-(thiazol-2-yl)-benzamide [Example 118]
68.9 nM	3-[2-(3-aminophenyl)ethyl]-5-(2-methoxy-(1S)-methyl-ethoxy)-N-(thiazol-2-yl)-benzamide [Example 91]
281 nM	3-[2-(3-benzoylaminophenyl)ethyl]-5-(2-methoxy-(1S)-methyl-ethoxy)-N-(thiazol-2-yl)-benzamide [Example 124]
370 nM	3-[2-(3-butyrylaminophenyl)ethyl]-5-(2-methoxy-(1S)-methyl-ethoxy)-N-(thiazol-2-yl)-benzamide [Example 119]

EC50	Substance
264 nM	3-[2-(3-chlorophenyl)ethyl]-5-(2-methoxy-(1S)-methyl-ethoxy)-N-(1-methyl-1H-pyrazol-3-yl)-benzamide [Example 102]
354 nM	3-[2-(4-acetylaminophenyl)ethyl]-5-(2-methoxy-(1S)-methyl-ethoxy)-N-(thiazol-2-yl)-benzamide [Example 132]
113 nM	3-[2-(4-aminophenyl)ethyl]-5-(2-methoxy-(1S)-methyl-ethoxy)-N-(thiazol-2-yl)-benzamide [Example 92]
411 nM	3-[2-(4-benzenesulfonylaminophenyl)ethyl]-5-(2-methoxy-(1S)-methyl-ethoxy)-N-(thiazol-2-yl)-benzamide [Example 144]
292 nM	3-[2-(4-benzoylaminophenyl)ethyl]-5-(2-methoxy-(1S)-methyl-ethoxy)-N-(thiazol-2-yl)-benzamide [Example 138]
322 nM	3-[2-(4-butyrylaminophenyl)ethyl]-5-(2-methoxy-(1S)-methyl-ethoxy)-N-(thiazol-2-yl)-benzamide [Example 133]
216 nM	3-[2-(4-fluorophenyl)ethyl]-5-(2-methoxy-(1S)-methyl-ethoxy)-N-(1-methyl-1H-pyrazol-3-yl)-benzamide [Example 98]
465 nM	3-[2-(4-fluorophenyl)ethyl]-5-(2-methoxy-(1S)-methyl-ethoxy)-N-(pyrazin-2-yl)-benz amide [Example 108]
314 nM	3-[2-(4-methoxyphenyl)ethyl]-5-(2-methoxy-(1S)-methyl-ethoxy)-N-(1-methyl-1H-pyrazol-3-yl)-benzamide [Example 100]
86.6 nM	3-[trans-2-(2,3,5-trifluorophenyl)vinyl]-5-(2-methoxy-(1S)-methyl-ethoxy)-N-(5-fluorothiazol-2-yl)-benzamide [Example 27]
126 nM	3-[trans-2-(2,3,5-trifluorophenyl)vinyl]-5-(2-methoxy-(1S)-methyl-ethoxy)-N-(thiazol-2-yl)-benzamide [Example 18]
132 nM	3-[trans-2-(2,3-difluorophenyl)vinyl]-5-(2-methoxy-(1S)-methyl-ethoxy)-N-(1-methyl-1H-pyrazol-3-yl)-benzamide [Example 34]
47.3 nM	3-[trans-2-(2,3-difluorophenyl)vinyl]-5-(2-methoxy-(1S)-methyl-ethoxy)-N-(5-fluorothiazol-2-yl)-benzamide [Example 24]
346 nM	3-[trans-2-(2,3-difluorophenyl)vinyl]-5-(2-methoxy-(1S)-methyl-ethoxy)-N-(pyrazin-2-yl)-benzamide [Example 55]
27.5 nM	3-[trans-2-(2,3-difluorophenyl)vinyl]-5-(2-methoxy-(1S)-methyl-ethoxy)-N-(thiazol-2-yl)-benzamide [Example 9]
118 nM	3-[trans-2-(2,3-dimethoxyphenyl)vinyl]-5-(2-methoxy-(1S)-methyl-ethoxy)-N-(5-fluorothiazol-2-yl)-benzamide [Example 28]
50.4 nM	3-[trans-2-(2,3-dimethoxyphenyl)vinyl]-5-(2-methoxy-(1S)-methyl-ethoxy)-N-(thiazol-2-yl)-benzamide [Example 17]
109 nM	3-[trans-2-(2,4-difluorophenyl)vinyl]-5-(2-methoxy-(1S)-methyl-ethoxy)-N-(1-methyl-1H-pyrazol-3-yl)-benzamide [Example 35]
70.2 nM	3-[trans-2-(2,4-difluorophenyl)vinyl]-5-(2-methoxy-(1S)-methyl-ethoxy)-N-(5-fluorothiazol-2-yl)-benzamide [Example 25]
301 nM	3-[trans-2-(2,4-difluorophenyl)vinyl]-5-(2-methoxy-(1S)-methyl-ethoxy)-N-(pyrazin-2-yl)-benzamide [Example 56]
55.2 nM	3-[trans-2-(2,4-difluorophenyl)vinyl]-5-(2-methoxy-(1S)-methyl-ethoxy)-N-(thiazol-2-yl)-benzamide [Example 10]
200 nM	3-[trans-2-(2,5-difluorophenyl)vinyl]-5-(2-methoxy-(1S)-methyl-ethoxy)-N-(1-methyl-1H-pyrazol-3-yl)-benzamide [Example 36]
